Measurements published in US12390532B2, “ALK protein regulator and anti-tumor application thereof” (SHANGHAITECH UNIVERSITY, priority 2019, dated 2025).

Tests used:
[1] = test system: SR cells (NPM-ALK, human anaplastic large cell lymphoma cells); test: Proliferation inhibition (IC50) in SR cells, CCK8 (WST) reagent; format: cell-based; conditions: 72 h, SR cells, WST reagent, 72 hours, read-out: IC50 (half inhibitory concentration), Brigatinib series in lymphoma cell lines
[2] = test system: triple-negative breast cancer MDA-MB-231 cell line; test: Proliferation inhibition (IC50) in MDA-MB-231 cell line; format: cell-based; conditions: Homo sapiens, WST reagent, 72 hours, read-out: IC50 (half inhibitory concentration) in MDA-MB-231 cell line
Description: (§1) The ALK gene rearrangement positive cell line used was SR cells (NPM-ALK, human anaplastic large cell lymphoma cells). MDA-MB231 was a triple-negative breast cancer cell. Both SR cells and MDA-MB231 cells were purchased from ATCC. The 293T cells overexpressing EML4-ALK G1202R were the cells constructed and verified for correct expression by this laboratory.
(§2) The IC50 of the compound of the present disclosure was determined using Promega's Cell Titer Blue, Cell Titer GLO or commercially available WST reagents. The specific steps were as follows: the cells were seeded in a 96-well plate containing 100 microliters of RPMI medium containing serum at a number of 2000 cells/well. On the second day, the original drug and the compound of the present disclosure were serially diluted and added to the cells. After 72 hours of treatment with the compound of the present disclosure, the cell activity detection reagent was added to the culture medium for cell activity determination according to the instructions. The negative control was DMSO, and the positive control was the original drug, and the cells were treated in the same manner as the compound of the present disclosure. The growth inhibition of the compounds of the present disclosure on cells was plotted by Prism Graphpad software and the IC50 of the compounds of the present disclosure was counted from it.

[3] = test system: 293T cells overexpressing EML4-ALK G1202R; test: Proliferation inhibition (IC50) in 293T cells overexpressing EML4-ALK G1202R; format: cell-based; conditions: Homo sapiens, HEK-293T; WST reagent, 72 hours; read-out: IC50 (half inhibitory concentration) in 293T cells overexpressing EML4-ALK G1202R
Description: as §2

lung cancer patients = conditions: cited from earlier work
ALK protein = target: T1, ALK protein (Homo sapiens, UniProt Q9UM73); test: Western blot of ALK protein degradation in SR cells; format: cell-based; conditions: 16 hours; for DC50: concentration range at half of the gray value, read-out: DC50 (half degradation concentration), Brigatinib series in lymphoma cell lines
T1 construct: We studied the total ALK protein in the anaplastic large cell lymphoma cell line SR; host or cells: SR cells (human anaplastic large cell lymphoma); the other entry of the earlier key: NPM1 (P06748, Nucleophosmin)
T1 sequence (Q9UM73 with tags, fused parts or gaps): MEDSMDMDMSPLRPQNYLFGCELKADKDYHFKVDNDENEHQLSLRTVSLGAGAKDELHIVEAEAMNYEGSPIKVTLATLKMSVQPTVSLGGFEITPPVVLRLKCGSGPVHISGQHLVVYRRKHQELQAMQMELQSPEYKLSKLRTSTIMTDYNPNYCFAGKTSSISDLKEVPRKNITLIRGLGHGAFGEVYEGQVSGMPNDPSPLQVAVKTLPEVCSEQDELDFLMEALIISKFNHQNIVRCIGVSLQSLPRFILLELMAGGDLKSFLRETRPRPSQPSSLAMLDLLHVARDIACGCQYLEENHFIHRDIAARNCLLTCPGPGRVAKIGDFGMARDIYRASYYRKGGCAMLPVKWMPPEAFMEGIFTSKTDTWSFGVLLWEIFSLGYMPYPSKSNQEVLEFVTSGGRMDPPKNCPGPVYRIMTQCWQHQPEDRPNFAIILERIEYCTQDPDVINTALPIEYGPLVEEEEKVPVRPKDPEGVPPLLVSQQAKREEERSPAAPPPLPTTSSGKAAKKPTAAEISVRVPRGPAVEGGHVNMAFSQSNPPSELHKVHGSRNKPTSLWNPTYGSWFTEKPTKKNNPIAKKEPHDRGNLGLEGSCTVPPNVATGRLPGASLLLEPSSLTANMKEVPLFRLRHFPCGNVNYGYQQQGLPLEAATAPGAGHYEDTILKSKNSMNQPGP
Description: as §1
Tumor cells were seeded in a 24-well plate containing 1 ml of RPMI1640 medium at 1.5-3×10^5 cells/well. The next day, the cells were treated with different concentrations of drugs. After 16 hours, the supernatant was removed and the cells were washed with PBS. The cells were placed on ice and the cells were treated with RIPA protein lysate containing Halt protease and phosphatase inhibitors. The lysate was centrifuged at 10000RPM at 4° C. for 10 minutes, and the supernatant was collected. The same amount of protein was added to the 4×SDS sample solution, denatured at 95° C. for 5 minutes and freezen to −20° C., or protein electrophoresis was directly performed. GenScript, a 4-20% gradient protein precast gel was used as the electrophoresis gel. The electrophoresis tank and related components were purchased from Bio-rad, and the electrophoresis conditions were equal pressure 120 v for 2 hours. PVDF membrane was used for the transfer membrane, and the transfer membrane system was placed on ice with an equal current of 400 mA for one hour. After transferring the membrane, it was sealed with TBST+5% milk powder for half an hour. For the specific steps of immunoblotting, refer to the antibody instructions of Cell Signaling Technology.
DC50 (the drug concentration corresponding to protein degradation to 50%) calculation: according to the gray value of the Western blotting band after the drug is processed, the relationship curve between the drug concentration and the gray value is fitted by Prism GraphPad software to calculate the drug concentration range corresponding half of the gray value.
The cells with different concentrations (0, 10, 50, 100, 500 nM) of Brigatinib were first treated in SR cells for 16 hours. Western blotting was used on cell lysate to detect the effect of Brigatinib on the content of ALK protein (FIG. 2).

| IC50 [1] | IC50 [2] | degradation effect on ALK protein (ALK protein; concentrations up to 500 nM) | DC50 (ALK protein) | Compound | IC50 [3] | control rate (lung cancer patients) | effective rate (lung cancer patients) |
| --- | --- | --- | --- | --- | --- | --- | --- |
| 6.9 nM | 381 ± 41 nM | no degradation effect | – | COc1cc(N2CCC(N3CCN(C)CC3)CC2)ccc1Nc1ncc(Cl)c(Nc2ccccc2P(C)(C)=O)n1 [Brigatinib, reference compound] | 473 ± 129 nM | 86% | 55% |
| 0.1 ± 0.02 nM | – | – | 0.05 to 0.5 nM | COc1cc(N2CCC(N3CCN(Cc4ccc(CSc5cccc6c5CN(C5CCC(=O)NC5=O)C6=O)cc4)CC3)CC2)ccc1Nc1ncc(Cl)c(Nc2ccccc2P(C)(C)=O)n1 (stereo not drawn) [SIAIS293189, 3-(4-((4-((4-(1-(4-((5-chloro-4-((2-(dimethylphosphono)phenyl)amino)pyrimidin-2-yl)amino)-3-methoxyphenyl)piperidin-4-yl)piperazin-1-yl)methyl)benzyl)thio)-1-oxoisoindolin-2-yl)piperidine-2,6-dione] | 99.5 ± 8.62 nM | – | – |
| 2.1 ± 1.2 nM | 4.5 ± 0.5 nM | – | 0.05 to 0.5 nM | COc1cc(N2CCC(N3CCN(CCCCCc4cccc5c4CN(C4CCC(=O)NC4=O)C5=O)CC3)CC2)ccc1Nc1ncc(Cl)c(Nc2ccccc2P(C)(C)=O)n1 (stereo not drawn) [SIAIS352008, 3-(4-(5-(4-(1-(4-((5-chloro-4-((2-(dimethylphosphono)phenyl)amino)pyrimidin-2-yl)amino)-3-methoxyphenyl)piperidin-4-yl)piperazin-1-yl)pentyl)-1-oxoisoindolin-2-yl)piperidine-2,6-dione] | – | – | – |
| 1.2 ± 0.3 nM | 4.9 ± 1.04 nM | – | 0.5 to 5 nM | COc1cc(N2CCC(N3CCN(CCSc4cccc5c4CN(C4CCC(=O)NC4=O)C5=O)CC3)CC2)ccc1Nc1ncc(Cl)c(Nc2ccccc2P(C)(C)=O)n1 (stereo not drawn) [SIAIS352011, 3-(4-((2-(4-(1-(4-((5-chloro-4-((2-(dimethylphosphono)phenyl)amino)pyrimidin-2-yl)amino)-3-methoxyphenyl)piperidin-4-yl)piperazin-1-yl)ethyl)thio)-1-oxoisoindolin-2-yl)piperidine-2,6-dione] | – | – | – |
